In ChEMBL document CHEMBL6087466, “The Potential of PARP Inhibitors as Antitumor Drugs and the Perspective of Molecular Design” (J Med Chem, 2025) one finds IC50 data, which are given here for 3 compounds.

Assay [1] has as its target Poly [ADP-ribose] polymerase 1 (Homo sapiens, UniProt P09874). Briefly: Inhibition of PARP1 (unknown origin).
The next assay relates to SK-OV-3. Briefly: Antiproliferative activity against human SK-OV-3 cells assessed as reduction in cell growth by SRB assay. It counts as functional, cell-based.

Chain of Poly [ADP-ribose] polymerase 1 (P09874 whole entry): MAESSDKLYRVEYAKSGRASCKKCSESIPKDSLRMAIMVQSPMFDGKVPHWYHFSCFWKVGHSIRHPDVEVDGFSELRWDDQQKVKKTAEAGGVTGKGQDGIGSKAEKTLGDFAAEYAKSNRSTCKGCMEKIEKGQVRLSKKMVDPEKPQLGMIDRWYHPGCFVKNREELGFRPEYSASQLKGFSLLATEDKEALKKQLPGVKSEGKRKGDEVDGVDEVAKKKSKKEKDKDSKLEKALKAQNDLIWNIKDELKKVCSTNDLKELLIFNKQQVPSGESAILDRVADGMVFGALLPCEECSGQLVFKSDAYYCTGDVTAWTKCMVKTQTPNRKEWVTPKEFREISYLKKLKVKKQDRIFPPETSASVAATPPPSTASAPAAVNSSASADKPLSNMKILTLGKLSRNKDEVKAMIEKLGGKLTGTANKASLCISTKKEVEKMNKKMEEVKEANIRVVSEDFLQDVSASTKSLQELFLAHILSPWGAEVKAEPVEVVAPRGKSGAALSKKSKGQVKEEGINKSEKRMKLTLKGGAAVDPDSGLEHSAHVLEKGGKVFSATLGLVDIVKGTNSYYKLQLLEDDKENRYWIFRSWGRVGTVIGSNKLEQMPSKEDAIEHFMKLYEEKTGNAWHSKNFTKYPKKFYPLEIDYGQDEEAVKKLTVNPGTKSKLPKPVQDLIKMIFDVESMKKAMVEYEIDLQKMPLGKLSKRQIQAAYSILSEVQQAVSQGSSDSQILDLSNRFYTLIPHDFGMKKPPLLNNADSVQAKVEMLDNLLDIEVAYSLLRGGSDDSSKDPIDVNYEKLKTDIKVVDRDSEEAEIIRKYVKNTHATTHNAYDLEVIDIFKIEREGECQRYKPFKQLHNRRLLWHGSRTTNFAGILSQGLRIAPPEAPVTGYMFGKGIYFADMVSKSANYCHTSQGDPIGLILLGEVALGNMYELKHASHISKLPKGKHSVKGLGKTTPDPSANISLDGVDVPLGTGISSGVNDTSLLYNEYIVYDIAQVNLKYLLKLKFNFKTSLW

`N#Cc1ccc(N2CCN([C@H]3C=C(c4cc5ncccc5c(=O)[nH]4)CC3)CC2)cc1` yielded an IC50 in assay [1] of 1 nM. `CCNC(=S)N/N=C/c1ccc(-c2nc3c(oc4ccccc43)c(=O)[nH]2)cc1`: the IC50 in the assay with SK-OV-3 turned out to be 4980 nM; in assay [1], 26 nM. In assay [1], `NC(=O)c1cccc2[nH]c(CCCCCCOc3cc(O)c4c(=O)cc(-c5ccccc5)oc4c3)nc12` showed an IC50 of 93 nM.

As a reminder, the IC50 is the concentration that inhibits the measured activity by half.
